Assay: xn = mol fraction of the nth substance listed

C1CCCC1 + CCCCCO
101.3 kPa
Conditions	viscosity [mPa·s]
298.15 K, x1 = 0.0498	3.211
298.15 K, x1 = 0.0796	3.013
298.15 K, x1 = 0.1294	2.679
298.15 K, x1 = 0.1855	2.343
298.15 K, x1 = 0.2386	2.037
298.15 K, x1 = 0.2579	1.924
298.15 K, x1 = 0.2645	1.883
298.15 K, x1 = 0.2919	1.755
298.15 K, x1 = 0.3012	1.709
298.15 K, x1 = 0.351	1.481
298.15 K, x1 = 0.3712	1.406
298.15 K, x1 = 0.4221	1.221
298.15 K, x1 = 0.4544	1.118
298.15 K, x1 = 0.5073	0.992
298.15 K, x1 = 0.5388	0.926
298.15 K, x1 = 0.569	0.869
298.15 K, x1 = 0.596	0.827
298.15 K, x1 = 0.6189	0.79
298.15 K, x1 = 0.6343	0.771
298.15 K, x1 = 0.6621	0.739
298.15 K, x1 = 0.6893	0.707
298.15 K, x1 = 0.7282	0.685
298.15 K, x1 = 0.774	0.663
298.15 K, x1 = 0.8207	0.613
298.15 K, x1 = 0.8699	0.566
298.15 K, x1 = 0.9192	0.515
298.15 K, x1 = 0.9698	0.447
308.15 K, x1 = 0.0419	2.415
308.15 K, x1 = 0.1319	2.057
308.15 K, x1 = 0.2149	1.783
308.15 K, x1 = 0.2986	1.542
308.15 K, x1 = 0.3735	1.35
308.15 K, x1 = 0.4	1.287
308.15 K, x1 = 0.4437	1.19
308.15 K, x1 = 0.4804	1.118
308.15 K, x1 = 0.5152	1.049
308.15 K, x1 = 0.6882	0.817
308.15 K, x1 = 0.7025	0.798
308.15 K, x1 = 0.7196	0.781
308.15 K, x1 = 0.7454	0.752
308.15 K, x1 = 0.7726	0.727
308.15 K, x1 = 0.809	0.681
308.15 K, x1 = 0.8542	0.617
308.15 K, x1 = 0.9094	0.517
308.15 K, x1 = 0.955	0.418
318.15 K, x1 = 0.1213	1.768
318.15 K, x1 = 0.1891	1.573
318.15 K, x1 = 0.2652	1.36
318.15 K, x1 = 0.34	1.171
318.15 K, x1 = 0.4015	1.035
318.15 K, x1 = 0.4409	0.953
318.15 K, x1 = 0.4863	0.864
318.15 K, x1 = 0.5184	0.807
318.15 K, x1 = 0.5402	0.775
318.15 K, x1 = 0.5588	0.74
318.15 K, x1 = 0.6063	0.67
318.15 K, x1 = 0.665	0.593
318.15 K, x1 = 0.7127	0.537
318.15 K, x1 = 0.7882	0.467
318.15 K, x1 = 0.8688	0.405
318.15 K, x1 = 0.9451	0.359

C=CCc1ccc2c(c1)OCO2 + CCCCCOC(C)=O
298.15 K, 101 kPa
Conditions	viscosity [mPa·s]
x1 = 0.053	0.833
x1 = 0.232	1.01

c1ccc(-c2ccccc2)cc1 + CCCCCOC(C)=O
298.15 K, 101 kPa
Conditions	viscosity [mPa·s]
x1 = 0.0249	0.803
x1 = 0.0367	0.8121

CCC(=O)CC + CCCCN
303.15 K, 101.33 kPa
Conditions	viscosity [mPa·s]
x2 = 0.1145	0.519
x2 = 0.2006	0.59
x2 = 0.3211	0.678
x2 = 0.417	0.735
x2 = 0.5421	0.784
x2 = 0.7264	0.752
x2 = 0.8234	0.681
x2 = 0.8922	0.62

CCC(=O)CC + CCCCN(CCCC)CCCC
viscosity [mPa·s], 101 kPa
Conditions	298.15 K	303.15 K	308.15 K
x2 = 0.05	0.468	0.442	0.419
x2 = 0.1004	0.498	0.47	0.444
x2 = 0.1502	0.533	0.502	0.473
x2 = 0.2006	0.566	0.531	0.502
x2 = 0.25	0.6	0.563	0.529
x2 = 0.2996	0.636	0.595	0.559
x2 = 0.3995	0.71	0.662	0.621
x2 = 0.4998	0.79	0.734	0.684
x2 = 0.6004	0.874	0.809	0.752
x2 = 0.7005	0.965	0.889	0.824
x2 = 0.7998	1.065	0.978	0.901
x2 = 0.8462	1.109	1.016	0.934
x2 = 0.8953	1.16	1.06	0.976
x2 = 0.9489	1.212	1.106	1.017

C1CCCC1 + CCCCO
101 kPa
Conditions	viscosity [mPa·s]
298.15 K, x1 = 0.0281	2.401
298.15 K, x1 = 0.0729	2.23
298.15 K, x1 = 0.1366	1.972
298.15 K, x1 = 0.2131	1.703
298.15 K, x1 = 0.268	1.533
298.15 K, x1 = 0.2928	1.448
298.15 K, x1 = 0.3216	1.358
298.15 K, x1 = 0.3809	1.205
298.15 K, x1 = 0.4426	1.035
298.15 K, x1 = 0.5285	0.8835
298.15 K, x1 = 0.5981	0.7551
298.15 K, x1 = 0.6858	0.6361
298.15 K, x1 = 0.7617	0.5622
298.15 K, x1 = 0.7948	0.5316
298.15 K, x1 = 0.8094	0.5193
298.15 K, x1 = 0.8797	0.4629
308.15 K, x1 = 0.004	1.958
308.15 K, x1 = 0.1227	1.614
308.15 K, x1 = 0.1427	1.583
308.15 K, x1 = 0.1774	1.556
308.15 K, x1 = 0.2185	1.381
308.15 K, x1 = 0.2585	1.358
308.15 K, x1 = 0.3367	1.164
308.15 K, x1 = 0.421	1.009
308.15 K, x1 = 0.494	0.8822
308.15 K, x1 = 0.5979	0.6995
308.15 K, x1 = 0.7214	0.5435
308.15 K, x1 = 0.8382	0.4404
308.15 K, x1 = 0.9315	0.3813
308.15 K, x1 = 0.9658	0.3641
308.15 K, x1 = 0.9781	0.3599

CCC(=O)CC + CCCCOC(C)=O
viscosity [mPa·s], 101 kPa
Conditions	x2 = 0.0808	x2 = 0.1652	x2 = 0.2542	x2 = 0.349	x2 = 0.4451	x2 = 0.5459	x2 = 0.65	x2 = 0.7613	x2 = 0.8771
298.15 K	0.478	0.5	0.523	0.543	0.558	0.573	0.59	0.614	0.645
303.15 K	0.445	0.464	0.485	0.5	0.513	0.526	0.541	0.562	0.589
308.15 K	0.419	0.437	0.455	0.471	0.483	0.495	0.509	0.528	0.554
313.15 K	0.395	0.411	0.429	0.441	0.452	0.461	0.474	0.491	0.514
